According to ChEMBL document CHEMBL1133261, “Synthesis and biological evaluation of 1,3,4-triaryl-3-pyrrolin-2-ones, a new class of selective cyclooxygenase-2 inhibitors” (Bioorg Med Chem Lett, 2000):

Biological target: Prostaglandin G/H synthase 1 (Homo sapiens, UniProt P23219)
Assay: Biochemical index for Prostaglandin G/H synthase 1 measured as, thromboxane 2 (TXB2) levels following blood coagulation
Format: tissue-based

Prostaglandin G/H synthase 1, sequence (P23219 whole entry): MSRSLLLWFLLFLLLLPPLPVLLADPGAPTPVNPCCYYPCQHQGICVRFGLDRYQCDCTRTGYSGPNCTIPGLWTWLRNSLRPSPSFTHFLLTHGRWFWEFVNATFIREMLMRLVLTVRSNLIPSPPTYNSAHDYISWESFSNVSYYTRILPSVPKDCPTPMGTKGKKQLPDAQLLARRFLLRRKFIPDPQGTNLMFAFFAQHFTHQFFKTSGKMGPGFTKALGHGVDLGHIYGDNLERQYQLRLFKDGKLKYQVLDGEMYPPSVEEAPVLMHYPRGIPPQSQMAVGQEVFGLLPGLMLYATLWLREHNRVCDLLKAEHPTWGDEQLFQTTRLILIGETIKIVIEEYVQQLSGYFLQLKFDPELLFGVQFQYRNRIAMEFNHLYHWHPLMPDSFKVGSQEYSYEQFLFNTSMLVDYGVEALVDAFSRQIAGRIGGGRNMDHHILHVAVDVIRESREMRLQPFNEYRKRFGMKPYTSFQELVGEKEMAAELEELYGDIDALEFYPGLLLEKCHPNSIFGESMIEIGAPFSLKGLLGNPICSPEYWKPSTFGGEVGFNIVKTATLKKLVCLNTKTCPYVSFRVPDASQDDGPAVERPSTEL

| Structure (SMILES) | IC50 [µM] |
| --- | --- |
| Cc1ccc(N2CC(c3ccc(S(C)(=O)=O)cc3)=C(c3ccc(F)cc3)C2=O)cc1 | 3.7 |
| CS(=O)(=O)c1ccc(C2=C(c3ccccc3)C(=O)N(c3ccc(C(F)(F)F)cc3)C2)cc1 | 5.1 |
| CS(=O)(=O)c1ccc(C2=C(c3ccc(F)cc3)C(=O)N(c3ccccc3)C2)cc1 | 2.7 |
| CS(=O)(=O)c1ccc(C2=C(c3ccccc3)C(=O)N(c3ccccc3F)C2)cc1 | 10.8 |
| CS(=O)(=O)c1ccc(C2=C(c3ccc(F)c(F)c3)C(=O)N(c3ccccc3)C2)cc1 | 8.2 |
| COc1ccc(C2=C(c3ccc(S(C)(=O)=O)cc3)CN(c3ccccc3)C2=O)cc1 | 2.68 |
| CS(=O)(=O)c1ccc(C2=C(c3ccc(F)cc3)C(=O)N(c3ccccc3F)C2)cc1 | 2.5 |
| COc1ccccc1N1CC(c2ccc(S(C)(=O)=O)cc2)=C(c2ccc(F)cc2)C1=O | 4 |
| COc1ccc(C2=C(c3ccc(S(C)(=O)=O)cc3)CN(c3cccc(F)c3)C2=O)cc1 | 2.5 |
| COc1ccc(C2=C(c3ccc(S(C)(=O)=O)cc3)CN(c3ccc(F)cc3)C2=O)cc1 | 2.5 |
| CS(=O)(=O)c1ccc(C2=C(c3ccccc3)C(=O)N(c3ccc(F)cc3)C2)cc1 | 5.86 |
| Cc1ccc(N2CC(c3ccc(S(C)(=O)=O)cc3)=C(c3ccccc3)C2=O)cc1 | 6.9 |
| CS(=O)(=O)c1ccc(C2=C(c3ccc(F)cc3)C(=O)N(c3ccc(C(F)(F)F)cc3)C2)cc1 | 7.2 |
| COc1ccc(C2=C(c3ccc(S(C)(=O)=O)cc3)CN(c3ccccc3Cl)C2=O)cc1 | 2.3 |
| CS(=O)(=O)c1ccc(C2=C(c3ccccc3)C(=O)N(c3cccc(Cl)c3)C2)cc1 | 9.8 |
| COc1ccc(N2CC(c3ccc(S(C)(=O)=O)cc3)=C(c3ccc(F)cc3)C2=O)cc1 | 5.28 |
| CS(=O)(=O)c1ccc(C2=C(c3ccccc3)C(=O)N(c3ccccc3)C2)cc1 | 2.4 |
